34 compounds from ChEMBL document CHEMBL6092185, “Discovery of glycosidated glycyrrhetinic acid derivatives: Natural product-based soluble epoxide hydrolase inhibitors” (Eur J Med Chem, 2024) can be followed below.

Data set [1] deals with T1, Bifunctional epoxide hydrolase 2 (Mus musculus, UniProt P34914).
T1 sequence (P34914 whole entry): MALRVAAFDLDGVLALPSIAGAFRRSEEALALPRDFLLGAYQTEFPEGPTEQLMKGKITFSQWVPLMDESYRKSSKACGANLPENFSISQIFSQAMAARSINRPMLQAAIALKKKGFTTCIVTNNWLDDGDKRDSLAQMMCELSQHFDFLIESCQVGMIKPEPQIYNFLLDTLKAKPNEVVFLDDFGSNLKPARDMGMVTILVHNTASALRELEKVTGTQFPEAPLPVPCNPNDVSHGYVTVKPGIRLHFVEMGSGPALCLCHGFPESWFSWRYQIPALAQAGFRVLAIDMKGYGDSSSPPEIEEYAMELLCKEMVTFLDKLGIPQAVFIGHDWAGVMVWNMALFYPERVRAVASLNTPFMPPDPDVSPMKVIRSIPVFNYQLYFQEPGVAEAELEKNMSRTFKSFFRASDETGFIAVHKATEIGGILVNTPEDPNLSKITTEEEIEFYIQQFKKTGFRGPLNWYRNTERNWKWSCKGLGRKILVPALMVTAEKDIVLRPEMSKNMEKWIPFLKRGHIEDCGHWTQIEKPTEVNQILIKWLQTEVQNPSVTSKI
Kind of data set: Inhibition of C57BL/6J mouse cortex sEH using 14,15-EET as substrate preincubated for 15 mins followed by substrate addition measured after 2 hrs by UPLC-MS/MS analysis.

For data set [2], the species on record is Mus musculus. Kind of data set: animal or person. The note with it: BALB/c, 6 h, read-out: INH.
Description: Anti-inflammatory activity in BALB/c mouse model of Carrageenan-induced paw edema assessed as inhibition of edema at 5 mg/kg, ip measured upto 6 hrs relative to control
Data set [3] is filed under the species Mus musculus. Kind of data set: animal or person. The settings on record: BALB/c, 4 h, read-out: INH.
Data set [4] can be described thus: Cytotoxicity against human HepG2 cells incubated overnight by CCK8 assay. (Formazan colour is commonly taken as a measure of viable cells.)
Data set [5] in a line: Cytotoxicity against HEK293T cells incubated overnight by CCK8 assay. The note with it: human.
The species entered for data set [6] is Mus musculus. Kind of data set: animal or person. The note with it: BALB/c, 2 h, read-out: INH.
Description: Anti-inflammatory activity in BALB/c mouse model of Carrageenan-induced paw edema assessed as inhibition of edema at 5 mg/kg, ip measured after 2 hrs relative to control
The species entered for data set [7] is Mus musculus. Kind of data set: animal or person. The note with it: BALB/c, 3 h, read-out: INH.
Description: Anti-inflammatory activity in BALB/c mouse model of Carrageenan-induced paw edema assessed as inhibition of edema at 5 mg/kg, ip measured after 3 hrs relative to control

Bounds are passed on as bounds.

`CC1(C)[C@@H](O[C@@H]2O[C@H](CO)[C@@H](O)[C@H](O)[C@H]2O)CC[C@]2(C)[C@H]3C(=O)C=C4[C@H]5C[C@@](C)(CNC(=O)NCc6ccc(OC(F)(F)F)cc6)CC[C@]5(C)CC[C@@]4(C)[C@]3(C)CC[C@@H]12` returned a 50% inhibitory concentration (IC50) in data set [1] of 3720 nM.

For the compound `CCC(=O)N1CCC(CNC(=O)NC[C@@]2(C)CC[C@]3(C)CC[C@]4(C)C(=CC(=O)[C@@H]5[C@@]6(C)CC[C@H](O)C(C)(C)[C@@H]6CC[C@]54C)[C@H]3C2)CC1`, in data set [1], half-maximal inhibition (IC50) required 9.9 nM. Turning to `CC1(C)[C@@H](O[C@@H]2O[C@H](CO)[C@@H](O)[C@H](O)[C@H]2O)CC[C@]2(C)[C@H]3C(=O)C=C4[C@@H]5C[C@@](C)(CNC(=O)NCC6CCOCC6)CC[C@]5(C)CC[C@@]4(C)[C@]3(C)CC[C@@H]12`, in data set [1], it took 446 nM to reach half-maximal inhibition (IC50). Regarding `CC1(C)[C@@H](O[C@H]2O[C@H](CO)[C@@H](O)[C@H](O)[C@H]2O)CC[C@]2(C)[C@H]3C(=O)C=C4[C@H]5C[C@@](C)(CNC(=O)NCC6CCOCC6)CC[C@]5(C)CC[C@@]4(C)[C@]3(C)CC[C@@H]12`, in the data set filed under Mus musculus [2], the inhibition in vivo at 5 mg/kg came to 40.3%. Besides, the half-inhibitory concentration (IC50) in data set [1] is 442 nM. As for `CC1(C)[C@@H](O)CC[C@]2(C)[C@H]3C(=O)C=C4[C@H]5C[C@@](C)(CNC(=O)NCC6CCOCC6)CC[C@]5(C)CC[C@@]4(C)[C@]3(C)CC[C@@H]12`, the inhibition in vivo at 20 mg/kg in the data set filed under Mus musculus [3] was 28.4%. In addition, the IC50 is greater than 50000 nM in data set [4], 5.2 nM in data set [1] and greater than 50000 nM in data set [5].

As to `CC1(C)[C@@H](O[C@@H]2O[C@H](CO)[C@@H](O)[C@H](O)[C@H]2O)CC[C@]2(C)[C@H]3C(=O)C=C4[C@@H]5C[C@@](C)(CNC(=O)NCC6CCC(OC(F)(F)F)CC6)CC[C@]5(C)CC[C@@]4(C)[C@]3(C)CC[C@@H]12` (stereo partly specified), half-maximal inhibition in data set [1] (IC50) required 2120 nM.

In data set [1], `CC1(C)[C@@H](O[C@H]2O[C@H](CO)[C@H](O)[C@H](O)[C@H]2O)CC[C@]2(C)[C@H]3C(=O)C=C4[C@H]5C[C@@](C)(CNC(=O)NCC6CCOCC6)CC[C@]5(C)CC[C@@]4(C)[C@]3(C)CC[C@@H]12` yielded a half-maximal inhibitory concentration (IC50) of 310 nM.

Compound `CC1(C)[C@@H](O)CC[C@]2(C)[C@H]3CC=C4[C@@H]5C[C@@](C)(CNC(=O)NCC6CCOCC6)CC[C@]5(C)CC[C@@]4(C)[C@]3(C)CC[C@@H]12` returned a concentration for half-maximal inhibition (IC50) in data set [1] of 10.3 nM. On the same count and under the same terms, the figure for `CC1(C)[C@@H](O)CC[C@]2(C)[C@H]3C(=O)C=C4[C@@H]5C[C@@](C)(CNC(=O)NCc6ccc(S(C)(=O)=O)cc6)CC[C@]5(C)CC[C@@]4(C)[C@]3(C)CC[C@@H]12` is 15.9 nM. Still for that read-out and setting: the figure for `CC1(C)[C@@H](O[C@H]2OC[C@@H](O)[C@H](O)[C@H]2O)CC[C@]2(C)[C@H]3C(=O)C=C4[C@H]5C[C@@](C)(CNC(=O)NCC6CCOCC6)CC[C@]5(C)CC[C@@]4(C)[C@]3(C)CC[C@@H]12` is 450 nM; for `CC(C)CNC(=O)NC[C@@]1(C)CC[C@]2(C)CC[C@]3(C)C(=CC(=O)[C@@H]4[C@@]5(C)CC[C@H](O)C(C)(C)[C@@H]5CC[C@]43C)[C@@H]2C1` it is 20.5 nM; for `CC1(C)[C@@H](O)CC[C@]2(C)[C@H]3C(=O)C=C4[C@H]5C[C@@](C)(CNC(=O)NCc6ccc(S(C)(=O)=O)cc6)CC[C@]5(C)CC[C@@]4(C)[C@]3(C)CC[C@@H]12` it is 9.7 nM. In the case of `CC1(C)C(=O)CC[C@]2(C)[C@H]3C(=O)C=C4[C@@H]5C[C@@](C)(CNC(=O)NCC6CCOCC6)CC[C@]5(C)CC[C@@]4(C)[C@]3(C)CC[C@@H]12`, the concentration for half-maximal inhibition (IC50) in data set [1] was determined as 18.9 nM. `CC1(C)[C@@H](O[C@@H]2OC[C@@H](O)[C@H](O)[C@H]2O)CC[C@]2(C)[C@H]3C(=O)C=C4[C@H]5C[C@@](C)(CNC(=O)NCC6CCOCC6)CC[C@]5(C)CC[C@@]4(C)[C@]3(C)CC[C@@H]12` had an IC50 in data set [1] of 435 nM. Regarding `CC1(C)[C@@H](O)CC[C@]2(C)[C@H]3C(=O)C=C4[C@H]5C[C@@](C)(CNC(=O)NCc6ccc(OC(F)(F)F)cc6)CC[C@]5(C)CC[C@@]4(C)[C@]3(C)CC[C@@H]12`, the half-inhibitory concentration (IC50) in data set [1] was 16.9 nM.

As to `CC1(C)[C@@H](O[C@@H]2O[C@H](CO)[C@@H](O)[C@H](O)[C@@H]2O)CC[C@]2(C)[C@H]3C(=O)C=C4[C@H]5C[C@@](C)(CNC(=O)NCC6CCOCC6)CC[C@]5(C)CC[C@@]4(C)[C@]3(C)CC[C@@H]12`, the half-maximal inhibitory concentration (IC50) in data set [1] amounted to 160 nM. Still for that read-out and setting: the result for `CC1(C)[C@@H](O[C@H]2O[C@H](CO)[C@@H](O)[C@H](O)[C@H]2O)CC[C@]2(C)[C@H]3C(=O)C=C4[C@@H]5C[C@@](C)(CNC(=O)NCC6CCC(OC(F)(F)F)CC6)CC[C@]5(C)CC[C@@]4(C)[C@]3(C)CC[C@@H]12` (stereo partly specified) reads 2270 nM; that for `CC1(C)[C@@H](O[C@@H]2O[C@H](CO)[C@H](O)[C@H](O)[C@H]2O)CC[C@]2(C)[C@H]3C(=O)C=C4[C@H]5C[C@@](C)(CNC(=O)NCC6CCOCC6)CC[C@]5(C)CC[C@@]4(C)[C@]3(C)CC[C@@H]12`, 542 nM; that for `CC1(C)[C@@H](O[C@H]2O[C@H](CO)[C@@H](O)[C@H](O)[C@H]2O)CC[C@]2(C)[C@H]3C(=O)C=C4[C@@H]5C[C@@](C)(CNC(=O)NCC6CCOCC6)CC[C@]5(C)CC[C@@]4(C)[C@]3(C)CC[C@@H]12`, 387 nM. As to `CC[C@H](C)C(=O)N1CCC(NC(=O)Nc2ccc(OC(F)(F)F)c(F)c2)CC1`, in the data set filed under Mus musculus [2], the inhibition in vivo at 5 mg/kg is 39.2%. In the case of `CC1(C)[C@@H](O[C@@H]2O[C@H](CO)[C@@H](O)[C@H](O)[C@H]2O)CC[C@]2(C)[C@H]3C(=O)C=C4[C@H]5C[C@@](C)(CNC(=O)NCC6CCOCC6)CC[C@]5(C)CC[C@@]4(C)[C@]3(C)CC[C@@H]12`, the values for the inhibition in vivo at 5 mg/kg in the data set listed under Mus musculus [6] and in the data set filed under Mus musculus [7] were 43.2% and 42.4%, respectively. Besides, the 50% inhibitory concentration (IC50) in data set [1] is 301 nM. For `CC1(C)[C@@H](O)CC[C@]2(C)[C@H]3C(=O)C=C4[C@H]5C[C@@](C)(CNC(=O)NCc6ccc(S(N)(=O)=O)cc6)CC[C@]5(C)CC[C@@]4(C)[C@]3(C)CC[C@@H]12`, the IC50 in data set [1] is 13 nM.

Turning to `CC(C)CNC(=O)NC[C@@]1(C)CC[C@]2(C)CC[C@]3(C)C(=CC(=O)[C@@H]4[C@@]5(C)CC[C@H](O)C(C)(C)[C@@H]5CC[C@]43C)[C@H]2C1`, in data set [1], it took 13.4 nM to reach half-maximal inhibition (IC50). Same read-out and setting: the figure for `CCC(=O)N1CCC(CNC(=O)NC[C@@]2(C)CC[C@]3(C)CC[C@]4(C)C(=CC(=O)[C@@H]5[C@@]6(C)CC[C@H](O[C@@H]7O[C@H](CO)[C@@H](O)[C@H](O)[C@@H]7O)C(C)(C)[C@@H]6CC[C@]54C)[C@@H]3C2)CC1` is 174 nM. As for `CC1(C)[C@@H](O)CC[C@]2(C)[C@H]3C(=O)C=C4[C@@H]5C[C@@](C)(CNC(=O)NCC6CCOCC6)CC[C@]5(C)CC[C@@]4(C)[C@]3(C)CC[C@@H]12`, the inhibition in vivo at 20 mg/kg in the data set listed under Mus musculus [3] came to 27.2%. In data set [1], this compound came in with an IC50 of 7.7 nM. Compound `CC1(C)C(=O)CC[C@]2(C)[C@H]3C(=O)C=C4[C@H]5C[C@@](C)(CNC(=O)NCC6CCOCC6)CC[C@]5(C)CC[C@@]4(C)[C@]3(C)CC[C@@H]12` registered an IC50 in data set [1] of 13.4 nM. Consider `CC1(C)[C@@H](O[C@H]2O[C@H](CO)[C@@H](O)[C@H](O)[C@H]2O)CC[C@]2(C)[C@H]3C(=O)C=C4[C@H]5C[C@@](C)(CNC(=O)NCc6ccc(OC(F)(F)F)cc6)CC[C@]5(C)CC[C@@]4(C)[C@]3(C)CC[C@@H]12`, for which, in data set [1], 5630 nM corresponded to half-maximal inhibition (IC50).

Compound `CC(C)CNC(=O)NC[C@@]1(C)CC[C@]2(C)CC[C@]3(C)C(=CC[C@@H]4[C@@]5(C)CC[C@H](O)C(C)(C)[C@@H]5CC[C@]43C)[C@@H]2C1` came in with an IC50 in data set [1] of 6.6 nM.

Take `CCC(=O)N1CCC(CNC(=O)NC[C@@]2(C)CC[C@]3(C)CC[C@]4(C)C(=CC(=O)[C@@H]5[C@@]6(C)CC[C@H](O)C(C)(C)[C@@H]6CC[C@]54C)[C@@H]3C2)CC1`: in data set [1], half-maximal inhibition (IC50) required 5.6 nM. Regarding `CCC(=O)N1CCC(CNC(=O)NC[C@@]2(C)CC[C@]3(C)CC[C@]4(C)C(=CC(=O)[C@@H]5[C@@]6(C)CC[C@H](O[C@H]7O[C@H](CO)[C@@H](O)[C@H](O)[C@@H]7O)C(C)(C)[C@@H]6CC[C@]54C)[C@H]3C2)CC1`, in data set [1], the midpoint of inhibition, the IC50, lay at 151 nM. The same measure, in the same setting: the result for `CC1(C)[C@@H](O)CC[C@]2(C)[C@H]3C(=O)C=C4[C@@H]5C[C@@](C)(CNC(=O)NCc6ccc(S(N)(=O)=O)cc6)CC[C@]5(C)CC[C@@]4(C)[C@]3(C)CC[C@@H]12` reads 19.8 nM. In data set [1], `CC1(C)[C@@H](O[C@@H]2OC[C@@H](O)[C@@H](O)[C@@H]2O)CC[C@]2(C)[C@H]3C(=O)C=C4[C@H]5C[C@@](C)(CNC(=O)NCC6CCOCC6)CC[C@]5(C)CC[C@@]4(C)[C@]3(C)CC[C@@H]12` yielded a concentration for half-maximal inhibition (IC50) of 114 nM. On the same count and under the same terms, the figure for `CCC(=O)N1CCC(CNC(=O)NC[C@@]2(C)CC[C@]3(C)CC[C@]4(C)C(=CC(=O)[C@@H]5[C@@]6(C)CC[C@H](O[C@@H]7O[C@H](CO)[C@@H](O)[C@H](O)[C@@H]7O)C(C)(C)[C@@H]6CC[C@]54C)[C@H]3C2)CC1` is 152 nM; for `CC1(C)[C@@H](O)CC[C@]2(C)[C@H]3C(=O)C=C4[C@@H]5C[C@@](C)(CNC(=O)NCc6ccc(OC(F)(F)F)cc6)CC[C@]5(C)CC[C@@]4(C)[C@]3(C)CC[C@@H]12` it is 8.6 nM.

Broadly, the IC50 is the concentration that gives 50% inhibition. Higher therefore signals a need for much substance.
